Measured values reported in patent US20210009557A1, “ACYCLIC CXCR4 INHIBITORS AND USES THEREOF” (X4 Pharmaceuticals, Inc., priority 2017, published 2021).

Key:
[1] = test system: Caco-2 cells; test: in vitro; details: Caco-2
Method: (§1) The goal of this assay was to evaluate the intestinal absorption potential of drug candidates using Caco-2 cell lines.
(§2) Experimental Procedure • 1. Pre-warm Pre-warm HBSS Buffer in 37° C. water bath • 2. Sonicate Take compounds from −20° C., sonicate for a few minutes (no less than 1 minute) • 3. Solution preparation
(§3) For A-to-B Direction: • HBSS buffer with 0.3% DMSO and 5 μM LY: add 150 μL DMSO and 50 μL LY (5 mM) into 50 ml HBSS buffer (pH 7.4). • HBSS buffer with 0.1% DMSO and 5 μM LY: add 50 μL DMSO and 50 μL LY (5 mM) into 50 mL HBSS buffer (pH 7.4).
(§4) For B-to-A Direction: • HBSS buffer with 0.3% DMSO: add 150 μL DMSO into 50 ml HBSS buffer (pH 7.4). HBSS buffer with 0.1% DMSO: add 50 μL DMSO into 50 ml HBSS buffer (pH 7.4).
(§5) For A-to-B Direction: • Prepare HBSS buffer with 0.4% DMSO: add 200 μL DMSO into 50 ml HBSS buffer (pH 7.4).
(§6) For B-to-A Direction: • Prepare HBSS buffer with 0.4% DMSO and 5 μM LY: add 200 μL DMSO and 50 μL LY (5 mM) into 50 ml HBSS buffer (pH 7.4).
(§7) • 4. Measure TEER Take cell culture plate out of incubator, wash the cell monolayers with HBSS buffer, and then measure TEER values at Rm temperature. • 5. Centrifuge Centrifuge the compound solution (from step 3) at 4000 rpm for 5 min before loading to donor chambers. • 6. Dosing Add solution based on the volumes listed in the following table (make sure to take extra 100 μL of donor sample for T0 as Backup).
(§8) • 7. Apical LYTO samples To determine LY concentration in the apical chamber, take 100 μL sample from apical chambers into an opaque plate for LYTO. • 8. Pre-warm Pre-warm apical and basolateral plates at 37° C. for about 5 min, then begin transport by placing the apical plate onto basolateral plate. • 9. Incubation Keep the plates in incubator at 37° C. for 90 min. • 10.
(§9) • Prepare 1× solution: • 3 μL (20×)+57 μL of 0.4% DMSO HBSS+60 μL ACN with IS (Osalmid or Imipramine)—120 μL (1×) • 11. Transport termination Separate the apical plate from the basolateral plate after 90-min incubation. • 12. Measure LY Take 100 μL samples from basolateral plate to an opaque plate as LYT90. • 13. Measure LY concentrations for LYTO and LYT90 by Fluorometer (at excitation of 485 nm/emission of 535 nm). • 14.
(§10) Drug permeability: Papp=(VA/(Area×time))×([drug]accepter/(([drug]initial, donor)×Dilution Factor) • Where VA is the volume in the acceptor well, area is the surface area of the membrane and time is the total transport time in seconds.
(§11) For Millicell-24 Cell Culture Plates: surface area of the membrane=0.7 cm^2, VA=0.8 mL (A-to-B) or 0.4 mL (B-to-A)

[2] = biological target: T1, CXCR-4 transfected U87 cell line (U87.CXCR4) (Homo sapiens, UniProt P61073); test: Intracellular CXCL-12-induced calcium mobilization assay (FLIPR); type: cell-based; details: U87.CXCR4 cells; CXCL-12 25-50 ng/mL; compounds added 15 minutes before; read-out: IC50 CXCL-12 Ca2+ flux U87.CXCR4+
T1 construct: expressed in transfected cells; host or cells: U87 cell line (U87.CXCR4)
Method: Intracellular calcium mobilization induced by chemokines orchemokine-derived peptides were evaluated using a calcium responsive fluorescent probe and a FLIPR system. The CXCR-4 transfected U87 cell line (U87.CXCR4) cells were seeded in gelatine-coated black-wall 96-well plates at 20,000 cells per well and incubated for 12 hours. Cells were then loaded with the fluorescent calcium probe Fluo-2 acetoxymethyl at 4 μM final concentration in assay buffer (Hanks' balanced salt solution with 20 mM HEPES buffer and 0.2% bovine serum albumin, pH 7.4) for 45 min at 37′C. The intracellular calcium mobilization induced by the CXCL-12 (25-50 ng/mL) was then measured at 37° C. by monitoring the fluorescence as a function of time in all the wells simultaneously using a fluorometric imaging plate reader (FLIPR Tetra, Molecular Devices).

[3] = biological target: T2, Jurkat cells expressing CXCR4 (Homo sapiens, UniProt P61073); test: Chemokine (CXCL12-AF647) binding inhibition assay; details: CXCL12-AF647 25 ng/mL, read-out: IC50 CXCL-12 binding Jurkat
T2 construct: Jurkat cells expressing CXCR4; endogenous in cells; host or cells: Jurkat cells
Method: Jurkat cells expressing CXCR4 were washed once with assay buffer (Hanks' balanced salt solution with 20 mM HEPES buffer and 0.2% bovine serum albumin, pH 7.4) and then incubated for 15 min at room temperature with the test compounds diluted in assay buffer at dose-dependent concentrations. Subsequently, CXCL12-AF647 (25 ng/mL) was added to the compound-incubated cells. The cells were incubated for 30 min at room temperature. Thereafter, the cells were washed twice in assay buffer, fixed in 1% paraformaldehyde in PBS, and analyzed on the FL4 channel of a FACSCalibur flow cytometer equipped with a 635-nm red diode laser (Becton Dickinson, San Jose, Calif., USA).
The percentages of inhibition of CXCL12-AF647 binding were calculated according to the formula: [1−((MFI−MFINC)/(MFIPC−MFINC))]×100 where MFI is the mean fluorescence intensity of the cells incubated with CXCL12-AF647 in the presence of the inhibitor, MFINC is the mean fluorescence intensity measured in the negative control (i.e., autofluorescence of unlabeled cells), and MFIPC is the mean fluorescence intensity of the positive control (i.e., cells exposed to CXCL12-AF647 alone).

[4] = in vitro; details: human, Caco-2, pH 7.4
Method: as §1, §2, §3, §4, §5, §6, §7, §8, §9, §10, §11

T1 sequence (P61073 whole entry): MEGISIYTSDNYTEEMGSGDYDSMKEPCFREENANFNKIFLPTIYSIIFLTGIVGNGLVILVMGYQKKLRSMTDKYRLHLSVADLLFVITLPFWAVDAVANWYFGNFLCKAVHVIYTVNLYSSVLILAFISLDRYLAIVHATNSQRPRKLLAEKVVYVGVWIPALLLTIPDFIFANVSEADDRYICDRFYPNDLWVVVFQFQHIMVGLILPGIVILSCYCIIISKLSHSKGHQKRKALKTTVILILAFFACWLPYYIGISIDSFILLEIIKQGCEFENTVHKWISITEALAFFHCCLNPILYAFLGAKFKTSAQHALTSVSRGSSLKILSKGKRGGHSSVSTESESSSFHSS
T2 sequence (P61073 whole entry): as above

Compound | permeability for Lucifer Yellow [1] | IC50 [2] [nM] | IC50 [3] [nM] | Papp A→B at 90 min, 10 μM [4] [×10⁻⁶ cm/s] | Papp B→A at 90 min, 10 μM [4] [×10⁻⁶ cm/s] | efflux ratio at 90 min, 10 μM [4]
Lucifer Yellow [reference compound] | low permeability |  |  |  |  | 
Clc1cccnc1CN(CCc1cnc[nH]1)Cc1nccs1 [Compound I-53] |  | ≥ 1000 | 100 to 1000 | > 10 | > 10 | 0.1 to 10
Cc1cccnc1CN(CCc1ccccn1)Cc1ncccc1C [Compound I-4] |  | 100 to 1000 | 0.01 to 100 | > 10 | > 10 | 0.1 to 10
Cc1cccnc1CN(CCc1cnc[nH]1)Cc1nccc2ccccc12 [Compound I-36] |  | 0.01 to 100 | 0.01 to 100 | < 5 | > 10 | 10 to 30
Cc1cccnc1CN(CCc1cnc[nH]1)Cc1ncccc1C(C)C [Compound I-34] |  | 100 to 1000 | 0.01 to 100 | 5 to 10 | > 10 | 0.1 to 10
NC(=O)CCN(Cc1ncccc1Cl)[C@H]1CCCc2cccnc21 [Compound I-24] |  | ≥ 1000 | 0.01 to 100 | > 10 | > 10 | 0.1 to 10
Cc1cccnc1CN(CCc1c[nH]cn1)Cc1nc2c(F)cccc2n1C [Compound I-43, N-((4-fluoro-1-methyl-1H-benzo[d]imidazol-2-yl)methyl)-2-(1H-imidazol-4-yl)-N-((3-methylpyridin-2-yl)methyl)ethan-1-amine] |  | 0.01 to 100 | 0.01 to 100 | 5 to 10 | > 10 | 0.1 to 10
Clc1cccnc1CN(CCc1c[nH]cn1)[C@H]1CCCc2cccnc21 [Compound I-27, (S)—N-(2-(1H-imidazol-4-yl)ethyl)-N-((3-chloropyridin-2-yl)methyl)-5,6,7,8-tetrahydroquinolin-8-amine] |  | ≥ 1000 | 0.01 to 100 | 5 to 10 | > 10 | 0.1 to 10
Cc1cccnc1CN(CCC(N)=O)Cc1ncccc1C [Compound I-14, 3-(Bis((3-methylpyridin-2-yl)methyl)amino)propanamide] |  | ≥ 1000 | 100 to 1000 | > 10 | > 10 | 0.1 to 10
